How the values were obtained:
Type in all cases: cell-based, human
MiaPaCa-2 cells = assay: MTS assay of MiaPaCa2 cultures, single 50 μM dose; settings: MiaPaCa2, 50 μM
Description: MiaPaCa-2 cells were cultured in complete DMEM media containing 10% fetal bovine serum (FBS) and 1% penicillin-streptomycin, and 1% L-glutamine. BxPc-3 pancreatic cancer cells were cultured in complete RPMI media containing 10% fetal bovine serum (FBS), and 1% penicillin-streptomycin, 1% HEPES buffer, 1% sodium pyruvate and 1% L-glutamine HPDE6-C7 cells were cultured in serum-free keratinocyte SFM media. All cells were maintained at 37° C. in a humidified incubator with 5% CO2. The cells were treated with a single 50 μM dose of vehicle (vehicle only, may be a solvent), T3 alpha (alpha tocotrienol), T3 beta (beta tocotrienol), T3 gamma (gamma tocotrienol), T3 delta (delta tocotrienol), T alpha (alpha tocopherol), T beta (beta tocopherol), TS (tocopherol succinate), GG (geranylgeraniol), SA (succinic acid). A control (no treatment) culture was grown alongside the treatments for comparison. […]

[1] = system: SW1990 pancreatic cancer cells; assay: MTS assay of SW1990 cultures, single 50 μM dose; settings: SW1990, 50 μM
Description: SW1990 pancreatic cancer cells […] were cultured in complete DMEM media containing 10% fetal bovine serum (FBS) and 1% penicillin-streptomycin, and 1% L-glutamine. BxPc-3 pancreatic cancer cells were cultured in complete RPMI media containing 10% fetal bovine serum (FBS), and 1% penicillin-streptomycin, 1% HEPES buffer, 1% sodium pyruvate and 1% L-glutamine. HPDE6-C7 cells were cultured in serum-free keratinocyte SFM media. All cells were maintained at 37° C. in a humidified incubator with 5% CO2. The cells were treated with a single 50 μM dose of vehicle (ethanol extracted olive oil), T3 alpha (alpha tocotrienol), T3 beta (beta tocotrienol), T3 gamma (gamma tocotrienol), T3 delta (delta tocotrienol), T alpha (alpha tocopherol), T beta (beta tocopherol), TS (tocopherol succinate), GG (geranylgeraniol), SA (succinic acid). A control culture (i.e., only vehicle with no treatment) was grown alongside the treatments for comparison. Cell viability was measured using MTS assay at preselect times of 24, 48, or 72 hours after treatment.

BXPC3 cells = assay: MTT assay of BXPC3 cultures, single 50 μM dose; set-up: MTT assay result, run 1 / MTT assay result, run 2 / MTT assay result, run 3 / MTT assay result, run 4 / MTT assay result, run 5 / MTT assay result, run 6 / MTT assay result, run 7 / MTT assay result, av (average) / MTT assay result, av-blank / MTT assay result, av: unit not given here; settings: BXPC3, 50 μM; for MTT assay result, av-blank: average minus blank
Description: BXPC3 cells were cultured in complete […] media containing 10% fetal bovine serum (FBS) and 1% penicillin-streptomycin, and 1% L-glutamine. BxPc-3 pancreatic cancer cells were cultured in complete RPMI media containing 10% fetal bovine serum (FBS), and 1% penicillin-streptomycin, 1% HEPES buffer, 1% sodium pyruvate and 1% L-glutamine HPDE6-C7 cells were cultured in serum-free keratinocyte SFM media. All cells were maintained at 37° C. in a humidified incubator with 5% CO2. The cells were treated with a single 50 μM dose of vehicle (vehicle only, may be a solvent), T3 alpha (alpha tocotrienol), T3 beta (beta tocotrienol), T3 gamma (gamma tocotrienol), T3 delta (delta tocotrienol), T alpha (alpha tocopherol), T beta (beta tocopherol), TS (tocopherol succinate), GG (geranylgeraniol), SA (succinic acid). A control (no treatment) culture was grown alongside the treatments for comparison. Cell viability was measured using MTT assay at preselect times of 48 or 120 hours after treatment.

CC(C)=CCC/C(C)=C/CC/C(C)=C/CC[C@]1(C)CCc2c(C)c(O)cc(C)c2O1 [T3 beta, beta tocotrienol]
rel amt (relative value set to the control) (MiaPaCa-2 cells; 24 hours): 79 | MTS assay result, run 1 (MiaPaCa-2 cells; 24 hours): 0.17 | MTS assay result, run 2 (MiaPaCa-2 cells; 24 hours): 0.179 | MTS assay result, run 3 (MiaPaCa-2 cells; 24 hours): 0.184 | MTS assay result, run 4 (MiaPaCa-2 cells; 24 hours): 0.152 | MTS assay result, run 5 (MiaPaCa-2 cells; 24 hours): 0.172 | MTS assay result, run 6 (MiaPaCa-2 cells; 24 hours): 0.182 | MTS assay result, run 7 (MiaPaCa-2 cells; 24 hours): 0.179 | MTS assay result, run 8 (MiaPaCa-2 cells; 24 hours): 0.19 | MTS assay result, run 9 (MiaPaCa-2 cells; 24 hours): 0.176 | rel amt (relative value set to the control) (MiaPaCa-2 cells; 48 hours): 61 | MTS assay result, run 1 (MiaPaCa-2 cells; 48 hours): 0.193 | MTS assay result, run 2 (MiaPaCa-2 cells; 48 hours): 0.137 | MTS assay result, run 3 (MiaPaCa-2 cells; 48 hours): 0.227 | MTS assay result, run 4 (MiaPaCa-2 cells; 48 hours): 0.223 | MTS assay result, run 5 (MiaPaCa-2 cells; 48 hours): 0.231 | MTS assay result, run 6 (MiaPaCa-2 cells; 48 hours): 0.272 | MTS assay result, run 7 (MiaPaCa-2 cells; 48 hours): 0.225 | MTS assay result, run 8 (MiaPaCa-2 cells; 48 hours): 0.27 | MTS assay result, run 9 (MiaPaCa-2 cells; 48 hours): 0.222 | rel amt (relative value set to the control) (MiaPaCa-2 cells; 72 hours): 69 | MTS assay result, run 1 (MiaPaCa-2 cells; 72 hours): 0.349 | MTS assay result, run 2 (MiaPaCa-2 cells; 72 hours): 0.316 | MTS assay result, run 3 (MiaPaCa-2 cells; 72 hours): 0.328 | MTS assay result, run 4 (MiaPaCa-2 cells; 72 hours): 0.298 | MTS assay result, run 5 (MiaPaCa-2 cells; 72 hours): 0.323 | MTS assay result, run 6 (MiaPaCa-2 cells; 72 hours): 0.287 | MTS assay result, run 7 (MiaPaCa-2 cells; 72 hours): 0.281 | MTS assay result, run 8 (MiaPaCa-2 cells; 72 hours): 0.275 | MTS assay result, run 9 (MiaPaCa-2 cells; 72 hours): 0.307 | rel amnt (relative value set to the control) ([1]; 24 hours): 99 | MTS assay result, run 1 ([1]; 24 hours): 0.164 | MTS assay result, run 2 ([1]; 24 hours): 0.168 | MTS assay result, run 3 ([1]; 24 hours): 0.167 | MTS assay result, run 4 ([1]; 24 hours): 0.123 | MTS assay result, run 5 ([1]; 24 hours): 0.138 | MTS assay result, run 6 ([1]; 24 hours): 0.143 | MTS assay result, run 7 ([1]; 24 hours): 0.126 | MTS assay result, run 8 ([1]; 24 hours): 0.134 | MTS assay result, run 9 ([1]; 24 hours): 0.145 | rel amnt (relative value set to the control) ([1]; 48 hours): 68 | MTS assay result, run 1 ([1]; 48 hours): 0.108 | MTS assay result, run 2 ([1]; 48 hours): 0.093 | MTS assay result, run 3 ([1]; 48 hours): 0.09 | MTS assay result, run 4 ([1]; 48 hours): 0.104 | MTS assay result, run 5 ([1]; 48 hours): 0.109 | MTS assay result, run 6 ([1]; 48 hours): 0.117 | MTS assay result, run 7 ([1]; 48 hours): 0.1 | MTS assay result, run 8 ([1]; 48 hours): 0.102 | MTS assay result, run 9 ([1]; 48 hours): 0.104 | rel amnt (relative value set to the control) ([1]; 72 hours): 69 | MTS assay result, run 1 ([1]; 72 hours): 0.349 | MTS assay result, run 2 ([1]; 72 hours): 0.316 | MTS assay result, run 3 ([1]; 72 hours): 0.33 | MTS assay result, run 4 ([1]; 72 hours): 0.298 | MTS assay result, run 5 ([1]; 72 hours): 0.323 | MTS assay result, run 6 ([1]; 72 hours): 0.287 | MTS assay result, run 7 ([1]; 72 hours): 0.28 | MTS assay result, run 8 ([1]; 72 hours): 0.275 | MTS assay result, run 9 ([1]; 72 hours): 0.307 | rel amt (relative value set to the control) (BXPC3 cells; 48 hours): 95 | MTT assay result, av-blank (BXPC3 cells; 48 hours): 0.216 | MTT assay result, av (average) (BXPC3 cells; 48 hours, average of 7 runs): 0.265 | MTT assay result, run 1 (BXPC3 cells; 48 hours): 0.263 | MTT assay result, run 2 (BXPC3 cells; 48 hours): 0.261 | MTT assay result, run 3 (BXPC3 cells; 48 hours): 0.27 | MTT assay result, run 4 (BXPC3 cells; 48 hours): 0.254 | MTT assay result, run 5 (BXPC3 cells; 48 hours): 0.278 | MTT assay result, run 6 (BXPC3 cells; 48 hours): 0.255 | MTT assay result, run 7 (BXPC3 cells; 48 hours): 0.274 | rel amt (relative value set to the control) (BXPC3 cells; 120 hours (5 days)): 72 | MTT assay result, av-blank (BXPC3 cells; 120 hours (5 days)): 0.417 | MTT assay result, av (BXPC3 cells; 120 hours (5 days), average of 7 runs): 0.472 | MTT assay result, run 1 (BXPC3 cells; 120 hours (5 days)): 0.468 | MTT assay result, run 2 (BXPC3 cells; 120 hours (5 days)): 0.512 | MTT assay result, run 3 (BXPC3 cells; 120 hours (5 days)): 0.495 | MTT assay result, run 4 (BXPC3 cells; 120 hours (5 days)): 0.481 | MTT assay result, run 5 (BXPC3 cells; 120 hours (5 days)): 0.457 | MTT assay result, run 6 (BXPC3 cells; 120 hours (5 days)): 0.483 | MTT assay result, run 7 (BXPC3 cells; 120 hours (5 days)): 0.411
